Test results from patent US20260174875A1 (Novo Nordisk A/S, priority 2023, published 2026).
Numbered stars: 1 amine (or outer) side, 2 acyl side, 3 side chain; on linkers, the order of the positions; unused ones are H or OH. Square brackets hold non-standard residues; d marks the D form. Side chains are listed from the residue outwards. * marks the point of attachment. C18 diacid = O=C(O)CCCCCCCCCCCCCCCCC(=O)*; γGlu = O=C(O)[C@H](CCC(=O)[*:2])N[*:1]; AEEA = NCCOCCOCC(=O)O; Aib = CC(C)(N)C(=O)O

What follows are substances tested against T1, human GLP-1 receptor (hGLP-1R) (Homo sapiens, UniProt P43220) (assay: GLP-1 receptor assay, method A (CRE-luciferase reporter, BHK cells)). Conditions: method A, absence of HSA; read-out: hGLP-1R Potency, no HSA, EC50.
T1 construct: expressed in transfected cells
Type: cell-based
Method: (§1) To assess how the activation of the receptors is potentially influenced by the presence of human serum albumin (HSA), the in vitro assays were performed in the absence of HSA and presence of 1% (w/v) HSA.
Cells at approximately 80-90% confluence were washed once in PBS (Gibco 14190-094) and loosened from the cell flasks with Versene (Gibco, 15040-033). […] Cells were aliquoted and stored at −180° C. until use.
(§2) The assay buffer consisted of DMEM without phenol red (Gibco, 11880-028) supplemented with 1× GlutaMAX (Gibco, 35050-038), 10 mM HEPES (Gibco, 15630-056), 1% (w/v) ovalbumin (Sigma, A5503) and 0.1% (v/v) Pluronic F-68 (Gibco, 24040-032) either with HSA or without HSA (Sigma, A9511).
Frozen stocks of hGLP-1R BHK CRE-Luc cells were thawed in a 37° C. water bath, washed once in PBS (Gibco 14190-094) and diluted to 1.5×10^6 (1.5E+6) cells/mL in assay buffer with or without 2% (w/v) HSA (Sigma, A9511). […] The assay plates were incubated for 3 hours at 37° C. in 5% CO2, left at room temperature for 5 minutes after which 100 μL steadylite Plus™ (PerkinElmer/Revvity, 6066759) was added to each well. Plates were sealed and incubated at room temperature with gentle shaking for 30 minutes while protected from light. Luminescence was detected on a luminescence plate reader e.g., a Synergy 2 (BioTek).

T1 sequence (P43220 24-463): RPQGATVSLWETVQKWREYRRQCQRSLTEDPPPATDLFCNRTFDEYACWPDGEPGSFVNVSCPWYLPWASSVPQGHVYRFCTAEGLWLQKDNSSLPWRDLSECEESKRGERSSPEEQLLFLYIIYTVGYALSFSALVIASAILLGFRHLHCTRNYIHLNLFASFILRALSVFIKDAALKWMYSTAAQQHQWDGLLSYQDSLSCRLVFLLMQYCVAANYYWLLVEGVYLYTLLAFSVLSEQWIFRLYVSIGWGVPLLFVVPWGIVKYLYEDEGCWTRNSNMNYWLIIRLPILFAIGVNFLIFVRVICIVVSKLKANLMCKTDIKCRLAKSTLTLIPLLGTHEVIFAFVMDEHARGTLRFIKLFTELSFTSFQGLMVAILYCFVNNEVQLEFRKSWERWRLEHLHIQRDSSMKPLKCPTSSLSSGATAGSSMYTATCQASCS

“Y[Aib]EGTFTSDYSILLEEQAAREFIEWLLAGGPSK([AEEA-AEEA-γGlu-C18 diacid])GALAQTLAQTLASELSTAALGRLSAELHELATLPRTETGSGSP-NH2 [Compound 21]” and “Y[Aib]EGTFTSDYSILLEEQAAREFIEWLLAGGPSK([AEEA-AEEA-γGlu-C18 diacid])GALAQTLFVNQASELSTAALGRLSAELHELATLPRTETGSGSP-NH2 [Compound 24]” are within 1.5-fold of each other in EC50: 41.2 pM for the first, 51.5 pM for the second.

Going from “Y[Aib]EGTFTSDYSILLEEQAAREFIEWLLAGGPSK([AEEA-AEEA-γGlu-C18 diacid])GALAQTLGTNEASELSTAALGRLSAELHELATLPRTETGSGSP-NH2 [Compound 23]” to “Y[Aib]EGTFTSDYSILLEEQAAREFIEWLLAGGPSK([AEEA-AEEA-γGlu-C18 diacid])GAPPEASELSTAALGRLSAELHELATLPRTETGSGSP-NH2 [Compound 33]”, the EC50 rises from 15.3 pM to 32.1 pM (2.1-fold).

Compared with “Y[Aib]EGTFTSDYSILLEEQAAREFIEWLLAGGPSK([AEEA-AEEA-γGlu-C18 diacid])GAPPPSGGGGASELSTAALGRLSAELHRLATLPRTETGSGSP-NH2 [Compound 13]”, “Y[Aib]EGTFTSDYSILLEEQAAREFIEWLLAGGPSK([AEEA-AEEA-γGlu-C18 diacid])GEASELSTAALARLSAELHRLATLPRTETGSGSP-NH2 [Compound 28]” is 2.5-fold higher in EC50: 37.9 pM for the first, 96 pM for the second.

Work on “Y[Aib]EGTFTSDYSILLEEQAAREFIEWLLAGGPSK([AEEA-AEEA-γGlu-C18 diacid])GEASELSTAALGRLSAELHRLATLPRTETGSGSP-NH2 [Compound 19]” yielded an EC50 of 57.9 pM.

The substances below were run against T2, human GIP receptor (hGIPR) (Homo sapiens, UniProt P48546) (assay: GIP receptor assay, method A (CRE-luciferase reporter, BHK cells)). Conditions: method A, absence of HSA; read-out: hGIPR Potency, no HSA, EC50.
T2 construct: expressed in transfected cells
T2 sequence (P48546 22-466): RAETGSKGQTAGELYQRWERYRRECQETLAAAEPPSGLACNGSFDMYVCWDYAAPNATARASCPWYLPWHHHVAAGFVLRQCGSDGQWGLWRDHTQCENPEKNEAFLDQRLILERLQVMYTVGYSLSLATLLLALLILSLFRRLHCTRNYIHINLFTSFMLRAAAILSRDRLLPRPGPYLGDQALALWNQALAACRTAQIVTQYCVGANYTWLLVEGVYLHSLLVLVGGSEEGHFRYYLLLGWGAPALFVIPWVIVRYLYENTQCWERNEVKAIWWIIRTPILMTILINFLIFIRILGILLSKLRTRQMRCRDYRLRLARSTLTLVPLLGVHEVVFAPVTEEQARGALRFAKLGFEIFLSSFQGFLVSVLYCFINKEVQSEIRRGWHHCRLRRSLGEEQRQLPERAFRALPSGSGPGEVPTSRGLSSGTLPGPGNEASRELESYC
Type: cell-based
Method: To assess how the activation of the receptors is potentially influenced by the presence of human serum albumin (HSA), the in vitro assays were performed in the absence of HSA and presence of 1% (w/v) HSA. Unless stated otherwise the reference to the “GIP receptor assay as described in Example 4” throughout the specification shall refer to the described herein assay procedure method A (hGIPR assay) in the absence of HSA.
Activation of the human GIP receptor leads to increased intra-cellular concentrations of cyclic AMP (cAMP) and the consequent transcription activation from promoters containing multiple copies of the cAMP response element (CRE). It is thus possible to measure GIP receptor activity using a CRE-luciferase reporter gene introduced into Baby Hamster Kidney (BHK) cells co-expressing the human GIP receptor.
Cells at about 80-90% confluency were washed once with PBS (Gibco 14190-094) and detached from the cell flasks with Versene (Gibco, 15040-066). After centrifugation, the cells were counted, resuspended and diluted to approximately 1.5-3.0×10^6 (1.5E+6 to 3.0E+6) cells/mL in Recovery Cell Culture Freezing Medium (Gibco, 12648-010) and stored at −180° C. in suitable aliquots until use.
as §2
On the day before the assay hGIPR BHK Cre-Luc cells were thawed and plated out in 96 well Culture Plates (PerkinElmer/Revvity, 6005680) at 5.0×10^3 (5.0E+3) cells/well in growth medium as described above. The plates were then incubated for 21-23 hours at 37° C. with 5% CO2. On the day of the assay GLP-1-/GIP-/amylin-receptor tri-agonists or reference compounds were diluted in assay buffer using a 7-point, 10-fold titration plus a blank (absence of compound). Each compound was diluted and tested in duplicates in each experiment. In the plates containing the cells the growth medium was removed, and cells were washed twice with 100 μL PBS (Gibco 14190-094). 50 μL of the test compound dilutions were added to the plates containing cells preceded by 50 μL assay buffer with or without 2% (w/v) HSA (Sigma, A9511). The cell plates were incubated for 3 hours in a 5% CO2 incubator at 37° C. The plates were then transferred to room temperature followed by addition of 100 μL steadylite Plus™ (PerkinElmer/Revvity, 6066759). The plates were sealed and shaken for 30 minutes at room temperature while protected from light. Finally, luminescence (as an indicator of receptor activation) was measured on a Mithras reader (Berthold Technologies, DE). The EC50-values [pM] were calculated by non-linear curve fitting applying a four-parameter logistic model (Hill slope=“shared value for all datasets”) using GraphPad Prism (GraphPad Software, Boston, MA, USA).

Compared with “Y[Aib]EGTFTSDYSILLEEQAAREFIEWLLAGGPSK([AEEA-AEEA-γGlu-C18 diacid])GALAQTLAQTLASELSTAALGRLSAELHELATLPRTETGSGSP-NH2 [Compound 21]”, “Y[Aib]EGTFTSDYSILLEEQAAREFIEWLLAGGPSK([AEEA-AEEA-γGlu-C18 diacid])GALAQTLFVNQASELSTAALGRLSAELHELATLPRTETGSGSP-NH2 [Compound 24]” is 3.7-fold lower in EC50: 8.63 pM for the first, 2.34 pM for the second.

Going from “Y[Aib]EGTFTSDYSILLEEQAAREFIEWLLAGGPSK([AEEA-AEEA-γGlu-C18 diacid])GALAQTLGTNEASELSTAALGRLSAELHELATLPRTETGSGSP-NH2 [Compound 23]” to “Y[Aib]EGTFTSDYSILLEEQAAREFIEWLLAGGPSK([AEEA-AEEA-γGlu-C18 diacid])GAPPEASELSTAALGRLSAELHELATLPRTETGSGSP-NH2 [Compound 33]”, the EC50 rises from 1.2 pM to 3.11 pM (2.6-fold). The first is the more potent here.

“Y[Aib]EGTFTSDYSILLEEQAAREFIEWLLAGGPSK([AEEA-AEEA-γGlu-C18 diacid])GAPPPSGGGGASELSTAALGRLSAELHRLATLPRTETGSGSP-NH2 [Compound 13]” and “Y[Aib]EGTFTSDYSILLEEQAAREFIEWLLAGGPSK([AEEA-AEEA-γGlu-C18 diacid])GEASELSTAALARLSAELHRLATLPRTETGSGSP-NH2 [Compound 28]” are within 1.5-fold of each other in EC50: 2.4 pM for the first, 3.5 pM for the second.

“Y[Aib]EGTFTSDYSILLEEQAAREFIEWLLAGGPSK([AEEA-AEEA-γGlu-C18 diacid])GEASELSTAALGRLSAELHRLATLPRTETGSGSP-NH2 [Compound 19]” showed an EC50 of 9.44 pM.

What follows are substances tested against T3, human amylin receptor (hAMYR3) (Homo sapiens, UniProt O60896+P30988) (assay: Amylin receptor assay, method A (CRE-luciferase reporter, BHK cells)). Conditions: method A, absence of HSA; read-out: hAMYR3 Potency, no HSA, EC50.
T3 construct: host or cells: BHK cells (Hollex-1 line expressing hCTR(a) and CRE-Luc), further transfected with human RAMP3
Type: cell-based
Method: as §1
It is thus possible to measure hAMYR3 activity using a CRE-luciferase reporter gene introduced into Baby Hamster Kidney (BHK) cells co-expressing the hAMYR3.
The cell line was further transfected with human receptor modifying protein 3 (RAMP3) using standard methods.
After centrifugation, the cell pellet was resuspended and diluted to approximately 2.5-4.0×10^6 (2.5E+6 to 4.0E+6) cells/mL in Recovery™ Cell Culture Freezing Medium (Gibco, 12648-010). Cells were aliquoted and stored at −180° C. until use.
as §2, with “15630-056) and” for “15630-056),”, “either with or without” for “and”, “24040-032) and” for “24040-032)”, “with” for “with HSA”
The plate was incubated over night at 37° C. in 5% CO2. […] Luminescence was detected on a luminescence plate reader e.g., a Synergy 2 (BioTek).

T3 sequence (P30988 25-474): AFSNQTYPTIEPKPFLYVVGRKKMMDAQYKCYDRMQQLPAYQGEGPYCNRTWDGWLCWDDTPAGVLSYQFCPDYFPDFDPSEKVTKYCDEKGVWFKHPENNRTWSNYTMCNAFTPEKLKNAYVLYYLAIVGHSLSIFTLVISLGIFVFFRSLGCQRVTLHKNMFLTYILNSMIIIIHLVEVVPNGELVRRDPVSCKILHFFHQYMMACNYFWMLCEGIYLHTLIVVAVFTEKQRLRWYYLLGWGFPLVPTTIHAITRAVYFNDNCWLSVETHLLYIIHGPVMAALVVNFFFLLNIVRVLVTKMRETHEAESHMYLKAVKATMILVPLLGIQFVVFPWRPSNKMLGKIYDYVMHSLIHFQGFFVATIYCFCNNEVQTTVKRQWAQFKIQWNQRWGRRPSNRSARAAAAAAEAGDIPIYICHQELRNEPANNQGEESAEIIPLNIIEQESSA
T3 sequence (O60896 24-148): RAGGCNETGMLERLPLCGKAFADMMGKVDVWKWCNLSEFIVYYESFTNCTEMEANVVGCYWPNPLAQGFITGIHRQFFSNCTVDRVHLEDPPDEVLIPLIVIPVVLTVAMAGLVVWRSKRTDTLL

First: Y[Aib]EGTFTSDYSILLEEQAAREFIEWLLAGGPSK([AEEA-AEEA-γGlu-C18 diacid])GALAQTLAQTLASELSTAALGRLSAELHELATLPRTETGSGSP-NH2 [Compound 21]
Second: Y[Aib]EGTFTSDYSILLEEQAAREFIEWLLAGGPSK([AEEA-AEEA-γGlu-C18 diacid])GALAQTLFVNQASELSTAALGRLSAELHELATLPRTETGSGSP-NH2 [Compound 24]
The EC50 of the first is 2.8-fold higher: 12 pM for the first, 4.24 pM for the second.

First: Y[Aib]EGTFTSDYSILLEEQAAREFIEWLLAGGPSK([AEEA-AEEA-γGlu-C18 diacid])GALAQTLGTNEASELSTAALGRLSAELHELATLPRTETGSGSP-NH2 [Compound 23]
Second: Y[Aib]EGTFTSDYSILLEEQAAREFIEWLLAGGPSK([AEEA-AEEA-γGlu-C18 diacid])GAPPEASELSTAALGRLSAELHELATLPRTETGSGSP-NH2 [Compound 33]
The EC50 of the first is 2-fold lower: 5.17 pM for the first, 10.3 pM for the second. The first is the more potent here.

“Y[Aib]EGTFTSDYSILLEEQAAREFIEWLLAGGPSK([AEEA-AEEA-γGlu-C18 diacid])GAPPPSGGGGASELSTAALGRLSAELHRLATLPRTETGSGSP-NH2 [Compound 13]” and “Y[Aib]EGTFTSDYSILLEEQAAREFIEWLLAGGPSK([AEEA-AEEA-γGlu-C18 diacid])GEASELSTAALARLSAELHRLATLPRTETGSGSP-NH2 [Compound 28]” are within 1.5-fold of each other in EC50: 2.26 pM for the first, 2.28 pM for the second.

Substance “Y[Aib]EGTFTSDYSILLEEQAAREFIEWLLAGGPSK([AEEA-AEEA-γGlu-C18 diacid])GEASELSTAALGRLSAELHRLATLPRTETGSGSP-NH2 [Compound 19]” has an EC50 of 4.24 pM.
